Results reported in patent US9364458B2, “Stabilized pharmaceutical dosage forms comprising atrasentan” (AbbVie Inc., priority 2013, dated 2016).
Structures can show the parent of a compound that is named as a salt.

Tests used:
[1] = Dispersive surface energy by inverse gas chromatography; format: physicochemical
Experimental: Wet granulation blends prepared as described in Method 2 (atrasentan added dry to granulation bowl) and Method 3 (atrasentan added as HPMC suspension to granulation bowl) of Example 6 were analyzed prior to compression using inverse gas chromatography (“IGC”) to determine the surface energy of the blends. These measurements were compared to the measured values for pure atrasentan and pure HPMC.

[2] = Impurities / degradation products by HPLC in stability testing; format: physicochemical; settings: mixtures with atrasentan and crospovidone, 80° C.
[3] = system: subjects with diabetic nephropathy; experiment: Phase IIb clinical trials of atrasentan; format: in vivo, human
Description: The low dosing and the narrow therapeutic window for atrasentan have been confirmed through analysis of the data collected from recent Phase IIb clinical trials in subjects with diabetic nephropathy. These Phase IIb clinical trials evaluated the safety and efficacy of atrasentan to identify an appropriate balance between the systemic effects of atrasentan (which can lead to adverse side effects such as edema) and the efficacy effects of atrasentan. […] Reduction of residual albuminuria and the urinary-albumin-to-creatine ratio are surrogate endpoints generally associated with delaying the progression of end-stage renal disease and associated cardiovascular complications.

[4] = about 0.25 mg to about 1.25 mg daily
[5] = daily dose greater than about 1.25 mg

CCCCN(CCCC)C(=O)CN1C[C@H](c2ccc3c(c2)OCO3)[C@@H](C(=O)O)[C@@H]1c1ccc(OC)cc1 [Atrasentan Monohydrochloride]
DISPERSIVE SURFACE ENERGY ([1]; Average): 50.9 mJ · m^−2
DISPERSIVE SURFACE ENERGY ([1]; Run 1): 50.6 mJ · m^−2
DISPERSIVE SURFACE ENERGY ([1]; Run 2): 51.4 mJ · m^−2

Cl.N[C@@H](CS)C(=O)O.O [L-cysteine hydrochloride monohydrate]
stabilizing effect among the three anti-oxidants [2]: greatest stabilizing effect

CCCCN(CCCC)C(=O)CN1C[C@H](c2ccc3c(c2)OCO3)[C@@H](C(=O)O)[C@@H]1c1ccc(OC)cc1 [atrasentan, (2R,3R,4S)-4-(1,3-benzodioxol-5-yl)-1-[2-(dibutylamino)-2-oxoethyl]-2-(4-methoxyphenyl)pyrrolidine-3-carboxylic acid]
residual albuminuria [3, 4]: significantly reduce
urinary-albumin-to-creatine ratio [3, 4]: significantly reduce
adverse effects, particularly peripheral edema [3, 5]: increase in adverse effects
efficacy relative to the 1.25 mg daily dose [3, 5]: without any further improvement in efficacy
efficacy of daily dose ([3]; daily dose less than about 0.25 mg): sub-therapeutic
